Experimental data taken from ChEMBL document CHEMBL6074686 (Eur J Med Chem, 2025).
Activity calls are given as the source filed them. No cut-off for these calls is given here.

Key:
SK-OV-3 [1] = assay: Antitumor activity against human SK-OV-3 cells assessed as reduction in cell viability incubated for 72 hrs by CCK8 assay; type: functional, cell-based; conditions: SK-OV-3, 72 h
A549 = assay: Antitumor activity against human A549 cells assessed as reduction in cell viability incubated for 72 hrs by CCK8 assay; type: functional, cell-based; conditions: A549, 72 h
MCF7 = assay: Antitumor activity against human MCF7 cells assessed as reduction in cell viability incubated for 72 hrs by CCK8 assay; type: functional, cell-based; conditions: MCF7, 72 h
MDA-MB-231 = assay: Antitumor activity against human MDA-MB-231 cells assessed as reduction in cell viability incubated for 72 hrs by CCK8 assay; conditions: MDA-MB-231, 72 h
SK-OV-3 [2] = assay: Antitumor activity against human SK-OV-3 cells xenografted in female BALB/c nude mouse assessed as tumor growth inhibition at 10 mg/kg, […] via tail vein once every 2 to 3 days; type: functional; conditions: time 2-3 day, read-out: TGI
Tubulin (Homo sapiens) [3] = target: T1, Tubulin (Homo sapiens) (UniProt P68371+Q9H4B7+P0DPH7+P68366+Q13509+Q71U36+P04350+Q3ZCM7+P07437+P68363+Q9BQE3+Q6PEY2+Q13885+Q9BVA1+Q9BUF5); assay: Inhibition of tubulin polymerization in human SK-OV-3 cells at 20 nM incubated for 18 hrs by Alexa Fluor 488 staining based confocal immunofluorescent microscopic analysis; type: cell-based
Tubulin (Homo sapiens) [4] = target: T1, Tubulin (Homo sapiens); assay: Inhibition of tubulin polymerization (unknown origin) assessed as increase in optical density at 340 nm at 10 uM; type: protein-complex assay

SMILES: COc1ccc2c(c1)CCCN2c1nc(NC2CC2)nc2ccc(F)cc12
- IC50 (SK-OV-3 [1]): 1.5 nM
- IC50 (A549): 7.5 nM
- IC50 (MCF7): 2.4 nM
- IC50 (MDA-MB-231): 11.5 nM

SMILES: COc1ccc(-c2nc(N3CCCc4cc(OC)ccc43)c3cc(F)ccc3n2)cc1
- IC50 (SK-OV-3 [1]): > 1000 nM
- IC50 (A549): > 1000 nM
- IC50 (MCF7): > 1000 nM
- IC50 (MDA-MB-231): > 1000 nM

SMILES: COc1ccc2c(c1)CCCN2c1nc(Cl)nc2ccc(OC)cc12
- IC50 (SK-OV-3 [1]): 58 nM
- IC50 (A549): 33.4 nM
- IC50 (MCF7): 65.4 nM
- IC50 (MDA-MB-231): 65.3 nM

SMILES: COc1ccc2c(c1)CCCN2c1nc(NCC(C)C)nc2ccc(F)cc12
- IC50 (SK-OV-3 [1]): 157 nM
- IC50 (A549): 440 nM
- IC50 (MCF7): 553 nM
- IC50 (MDA-MB-231): 330 nM

SMILES: COc1ccc2c(c1)CCCN2c1nc(N2CCOCC2)nc2ccc(F)cc12
- IC50 (SK-OV-3 [1]): 31.6 nM
- IC50 (A549): 53.2 nM
- IC50 (MCF7): 60.4 nM
- IC50 (MDA-MB-231): 57.5 nM

SMILES: COc1ccc2c(c1)CCCN2c1nc(Cl)nc2ccc(C(F)(F)F)cc12
- IC50 (SK-OV-3 [1]): > 1000 nM
- IC50 (A549): > 1000 nM
- IC50 (MCF7): > 1000 nM
- IC50 (MDA-MB-231): > 1000 nM

SMILES: COc1ccc2c(c1)CCCN2c1nc(N2CCCCC2)nc2ccc(F)cc12
- IC50 (SK-OV-3 [1]): > 1000 nM
- IC50 (A549): > 1000 nM
- IC50 (MCF7): > 1000 nM
- IC50 (MDA-MB-231): > 1000 nM

SMILES: COc1ccc2c(c1)CCCN2c1nc(NC2CCC2)nc2ccc(F)cc12
- IC50 (SK-OV-3 [1]): 31.3 nM
- IC50 (A549): 51.3 nM
- IC50 (MCF7): 23.8 nM
- IC50 (MDA-MB-231): 36.2 nM

SMILES: COc1ccc2c(c1)CCCN2c1nc(Cl)nc2ccc(I)cc12
- IC50 (SK-OV-3 [1]): 160 nM
- IC50 (A549): 315 nM
- IC50 (MCF7): 547 nM
- IC50 (MDA-MB-231): 327 nM

SMILES: COc1ccc2c(c1)CCCN2c1nc(NCCN(C)C)nc2ccc(F)cc12
- IC50 (SK-OV-3 [1]): > 1000 nM
- IC50 (A549): > 1000 nM
- IC50 (MCF7): > 1000 nM
- IC50 (MDA-MB-231): > 1000 nM

SMILES: COc1ccc2c(c1)CCCN2c1nc(N(C)C)nc2ccc(F)cc12
- IC50 (SK-OV-3 [1]): 44.5 nM
- IC50 (A549): 64.4 nM
- IC50 (MCF7): 35.3 nM
- IC50 (MDA-MB-231): 45.5 nM

SMILES: COc1ccc2c(c1)CCCN2c1nc(NCCCO)nc2ccc(F)cc12
- IC50 (SK-OV-3 [1]): 5.7 nM
- IC50 (A549): 12.7 nM
- IC50 (MCF7): 6 nM
- IC50 (MDA-MB-231): 9.3 nM

SMILES: COc1ccc2c(c1)CCCN2c1nc(Cl)nc2ccc(Cl)cc12
- IC50 (SK-OV-3 [1]): 39.6 nM
- IC50 (A549): 67 nM
- IC50 (MCF7): 37.5 nM
- IC50 (MDA-MB-231): 24.7 nM

SMILES: COc1ccc2c(c1)CCCN2c1nc(NC2CCCC2)nc2ccc(F)cc12
- IC50 (SK-OV-3 [1]): > 1000 nM
- IC50 (A549): > 1000 nM
- IC50 (MCF7): > 1000 nM
- IC50 (MDA-MB-231): > 1000 nM

SMILES: COc1ccc2c(c1)CCCN2c1nc(Cl)nc2ccc(OC(F)(F)F)cc12
- IC50 (SK-OV-3 [1]): > 1000 nM
- IC50 (A549): > 1000 nM
- IC50 (MCF7): > 1000 nM
- IC50 (MDA-MB-231): > 1000 nM

SMILES: CCCNc1nc(N2CCCc3cc(OC)ccc32)c2cc(F)ccc2n1
- IC50 (SK-OV-3 [1]): 6.7 nM
- IC50 (A549): 19.3 nM
- IC50 (MCF7): 11.8 nM
- IC50 (MDA-MB-231): 25.6 nM

SMILES: COc1ccc2c(c1)CCCN2c1nc(N2CCCC2)nc2ccc(F)cc12
- IC50 (SK-OV-3 [1]): > 1000 nM
- IC50 (A549): > 1000 nM
- IC50 (MCF7): > 1000 nM
- IC50 (MDA-MB-231): > 1000 nM

SMILES: COc1ccc2c(c1)CCCN2c1nc(-c2cc(OC)c(OC)c(OC)c2)nc2ccc(F)cc12
- IC50 (SK-OV-3 [1]): > 1000 nM
- IC50 (A549): > 1000 nM
- IC50 (MCF7): > 1000 nM
- IC50 (MDA-MB-231): > 1000 nM

SMILES: COc1ccc2c(c1)CCCN2c1nc(NC(C)C)nc2ccc(F)cc12
- IC50 (SK-OV-3 [1]): 22.3 nM
- IC50 (A549): 45.7 nM
- IC50 (MCF7): 15.1 nM
- IC50 (MDA-MB-231): 25 nM

SMILES: COCCNc1nc(N2CCCc3cc(OC)ccc32)c2cc(F)ccc2n1
- IC50 (SK-OV-3 [1]): 3.4 nM
- IC50 (A549): 22.8 nM
- IC50 (MCF7): 17.8 nM
- IC50 (MDA-MB-231): 15.8 nM

SMILES: COc1ccc2c(c1)CCCN2c1nc(NC(C)(C)C)nc2ccc(F)cc12
- IC50 (SK-OV-3 [1]): > 1000 nM
- IC50 (A549): > 1000 nM
- IC50 (MCF7): > 1000 nM
- IC50 (MDA-MB-231): > 1000 nM

SMILES: COc1ccc2c(c1)CCCN2c1nc(Cl)nc2ccc(F)cc12
- IC50 (SK-OV-3 [1]): 22.2 nM
- IC50 (A549): 29.8 nM
- IC50 (MCF7): 24.6 nM
- IC50 (MDA-MB-231): 36.7 nM

SMILES: CC(=O)O[C@H]1C(=O)[C@@]2(C)[C@H]([C@H](OC(=O)c3ccccc3)[C@]3(O)C[C@H](OC(=O)[C@H](O)[C@@H](NC(=O)c4ccccc4)c4ccccc4)C(C)=C1C3(C)C)[C@]1(OC(C)=O)CO[C@@H]1C[C@@H]2O [PACLITAXEL]
- inhibition in vivo at 10 mg/kg (SK-OV-3 [2]): 39.1%
- inhibition (Tubulin (Homo sapiens) [3]): Not active; Aggregated Into Bundle Like Filamentary Structure
- IC50 (SK-OV-3 [1]): 11.6 nM
- inhibition (Tubulin (Homo sapiens) [4]): Active
- IC50 (A549): 1.7 nM
- IC50 (MCF7): 30.9 nM

SMILES: COc1ccc2c(c1)CCCN2c1nc(NCCOCCOCCO)nc2ccc(F)cc12
- IC50 (SK-OV-3 [1]): 69.4 nM
- IC50 (A549): 90.9 nM
- IC50 (MCF7): 192 nM
- IC50 (MDA-MB-231): 136 nM

SMILES: COc1cc2c(c(OC)c1OC)-c1ccc(OC)c(=O)cc1[C@@H](NC(C)=O)CC2 [COLCHICINE]
- IC50 (SK-OV-3 [1]): 6.3 nM
- IC50 (A549): 31.4 nM
- IC50 (MDA-MB-231): 12.1 nM

SMILES: COc1ccc2c(c1)CCCN2c1nc(Cl)nc2ccc(Br)cc12
- IC50 (SK-OV-3 [1]): 63.1 nM
- IC50 (A549): 15.2 nM
- IC50 (MCF7): 67.5 nM
- IC50 (MDA-MB-231): 66.5 nM

SMILES: COc1ccc2c(c1)CCCN2c1nc(N)nc2ccc(F)cc12
- IC50 (SK-OV-3 [1]): 4.4 nM
- IC50 (A549): 7.2 nM
- IC50 (MCF7): 6 nM
- IC50 (MDA-MB-231): 7.1 nM

SMILES: CCN(CC)c1nc(N2CCCc3cc(OC)ccc32)c2cc(F)ccc2n1
- IC50 (SK-OV-3 [1]): 471 nM
- IC50 (A549): > 1000 nM
- IC50 (MCF7): 714 nM
- IC50 (MDA-MB-231): 900 nM

SMILES: COc1ccc2c(c1)CCCN2c1nc(Cl)nc2ccc(C)cc12
- IC50 (SK-OV-3 [1]): 38.1 nM
- IC50 (A549): 29.7 nM
- IC50 (MCF7): 45.7 nM
- IC50 (MDA-MB-231): 37.1 nM

SMILES: COc1ccc(Nc2nc(N3CCCc4cc(OC)ccc43)c3cc(F)ccc3n2)cc1
- IC50 (SK-OV-3 [1]): > 1000 nM
- IC50 (A549): > 1000 nM
- IC50 (MCF7): > 1000 nM
- IC50 (MDA-MB-231): > 1000 nM

SMILES: COc1ccc2c(c1)CCCN2c1nc(N2CCN(C)CC2)nc2ccc(F)cc12
- IC50 (SK-OV-3 [1]): > 1000 nM
- IC50 (A549): > 1000 nM
- IC50 (MCF7): > 1000 nM
- IC50 (MDA-MB-231): > 1000 nM

SMILES: CCNc1nc(N2CCCc3cc(OC)ccc32)c2cc(F)ccc2n1
- IC50 (SK-OV-3 [1]): 4.9 nM
- IC50 (A549): 9.5 nM
- IC50 (MCF7): 3.8 nM
- IC50 (MDA-MB-231): 8.1 nM

SMILES: CCCCNc1nc(N2CCCc3cc(OC)ccc32)c2cc(F)ccc2n1
- IC50 (SK-OV-3 [1]): 26 nM
- IC50 (A549): 69.2 nM
- IC50 (MCF7): 47.1 nM
- IC50 (MDA-MB-231): 61.1 nM

SMILES: COc1ccc2c(c1)CCCN2c1nc(NCc2ccccc2)nc2ccc(F)cc12
- IC50 (SK-OV-3 [1]): > 1000 nM
- IC50 (A549): > 1000 nM
- IC50 (MCF7): > 1000 nM
- IC50 (MDA-MB-231): > 1000 nM

SMILES: COc1ccc2c(c1)CCCN2c1nc(NC2CCCCC2)nc2ccc(F)cc12
- IC50 (SK-OV-3 [1]): > 1000 nM
- IC50 (A549): > 1000 nM
- IC50 (MCF7): > 1000 nM
- IC50 (MDA-MB-231): > 1000 nM

SMILES: COCCCNc1nc(N2CCCc3cc(OC)ccc32)c2cc(F)ccc2n1
- IC50 (SK-OV-3 [1]): 18.9 nM
- IC50 (A549): 33.1 nM
- IC50 (MCF7): 28 nM
- IC50 (MDA-MB-231): 39.7 nM
